Drawing on ChEMBL document CHEMBL1141122, “Receptor flexibility in de novo ligand design and docking” (J Med Chem, 2005), this text covers Ki and IC50 for 39 compounds.

One assay has as its target T1, Interstitial collagenase (Homo sapiens, UniProt P03956).
T1 sequence (P03956 whole entry): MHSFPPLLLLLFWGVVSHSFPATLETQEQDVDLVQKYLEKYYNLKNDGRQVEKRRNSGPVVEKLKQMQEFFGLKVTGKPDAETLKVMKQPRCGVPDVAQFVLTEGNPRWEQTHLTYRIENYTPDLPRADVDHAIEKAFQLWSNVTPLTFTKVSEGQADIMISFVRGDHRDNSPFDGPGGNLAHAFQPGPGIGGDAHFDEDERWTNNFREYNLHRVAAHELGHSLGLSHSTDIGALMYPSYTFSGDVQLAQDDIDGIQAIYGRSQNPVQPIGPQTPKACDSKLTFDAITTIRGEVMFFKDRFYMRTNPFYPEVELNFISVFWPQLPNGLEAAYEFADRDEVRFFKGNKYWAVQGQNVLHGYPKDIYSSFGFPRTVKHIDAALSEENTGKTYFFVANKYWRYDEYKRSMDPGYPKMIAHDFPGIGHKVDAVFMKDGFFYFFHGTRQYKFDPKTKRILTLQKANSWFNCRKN
Put plainly: Binding affinity towards (MMP-1) matrix metalloprotease-1.
The Ki is the dissociation constant of the complex between target and ligand, obtained from inhibition or displacement. A lower Ki goes with a stronger hold on the target. In turn, `O=C(CNS(=O)(=O)c1ccc(Oc2ccncc2)cc1)NO` yielded a Ki of 0.0082 µM. For the compound `O=C(CNC(=O)c1ccc(Oc2ccc(Cl)cc2)cc1)NO`, the inhibition constant (Ki) was found to be 0.07 µM. The compound `O=C(CNC(=O)c1ccc(C(F)(F)F)cc1)NO` registered a Ki of 0.003 µM. The compound `O=C(CNC(=O)N1CCC(Oc2ccc(-n3ccnc3)cc2)CC1)NO` showed a Ki of 0.224 µM. Take `COc1ccc(C(=O)NCC(=O)NO)cc1`: the affinity corresponds to a Ki of 0.033 µM.

Consider `O=C(CNS(=O)(=O)c1ccc(Oc2ccc(Cl)cc2)cc1)NO`, for which affinity was put at a Ki of 0.07 µM. `O=C(CCC(=O)c1ccc(Oc2ccncc2)cc1)NO` displayed a Ki of 0.0082 µM. Regarding `O=C(CCS(=O)(=O)N1CCC(Oc2ccc(-n3ccnc3)cc2)CC1)NO`, the Ki amounted to 0.224 µM. Compound `COc1ccc(S(=O)(=O)CCC(=O)NO)cc1` gave an inhibitory constant (Ki) of 0.033 µM.

`O=C(CCC(=O)c1ccc(C(F)(F)F)cc1)NO` showed a Ki of 0.003 µM. Still for that read-out and setting: the same measure for `O=C(CCS(=O)(=O)c1ccc(C(F)(F)F)cc1)NO`: 0.003 µM; for `O=C(CNS(=O)(=O)c1ccc(C(F)(F)F)cc1)NO`: 0.003 µM; for `COc1ccc(C(=O)CCC(=O)NO)cc1`: 0.033 µM. Same read-out and setting: for `O=C(CCC(=O)c1ccc(Oc2ccc(Cl)cc2)cc1)NO` the value was 0.07 µM; for `O=C(CCC(=O)N1CCC(Oc2ccc(-n3ccnc3)cc2)CC1)NO`, 0.224 µM; for `O=C(CNS(=O)(=O)N1CCC(Oc2ccc(-n3ccnc3)cc2)CC1)NO`, 0.224 µM. On to `O=C(CCS(=O)(=O)c1ccc(Oc2ccc(Cl)cc2)cc1)NO`, for which the Ki came out at 0.07 µM. On the same count and under the same terms, for `O=C(CCS(=O)(=O)c1ccc(Oc2ccncc2)cc1)NO` the value was 0.0082 µM; for `O=C(CNC(=O)c1ccc(Oc2ccncc2)cc1)NO`, 0.0082 µM.

In another assay the target is T1, Interstitial collagenase. As to the kind of experiment: Inhibitory concentration against (MMP-1) matrix metalloprotease-1.
The IC50 is the concentration at which inhibition is half-maximal. Read a high IC50 as a need for much substance. The compound `CC#COc1ccc(C(=O)CCC(=O)NO)cc1` came in with a half-inhibitory concentration (IC50) of 0.121 µM. `O=C(CCS(=O)(=O)c1ccc(Oc2ccccc2)cc1)NO` had an IC50 of 0.022 µM. Compound `CCCCOc1ccc(C(=O)CCC(=O)NO)cc1` gave a concentration for half-maximal inhibition (IC50) of 0.92 µM. Regarding `CC#COc1ccc(S(=O)(=O)CCC(=O)NO)cc1`, the IC50 was determined as 0.121 µM. This IC50 lies about 7.6-fold lower than the previous one. Turning to `CCCCOc1ccc(S(=O)(=O)NCC(=O)NO)cc1`, 0.92 µM corresponded to half-maximal inhibition (IC50). With `Cc1cc(F)ccc1COc1ccc(C(=O)NCC(=O)NO)cc1`, the IC50 amounted to 0.01 µM. `O=C(CCC(=O)c1ccc(Oc2ccccc2)cc1)NO` had an IC50 of 0.022 µM. Still for that read-out and setting: the same measure for `O=C1CC=C2C=CC=C(C(=O)CCC(=O)NO)N2C1`: 0.003 µM.

The compound `O=C(CNC(=O)c1ccc(Oc2ccccc2)cc1)NO` gave an IC50 of 0.022 µM. Compared with the last compound, the IC50 is about 7.3-fold higher. The compound `O=C1CC=C2C=CC=C(S(=O)(=O)NCC(=O)NO)N2C1` showed an IC50 of 0.0013 µM. `O=C(CNS(=O)(=O)c1ccc(Oc2ccccc2)cc1)NO` registered an IC50 of 0.022 µM. Consider `Cc1cc(F)ccc1COc1ccc(C(=O)CCC(=O)NO)cc1`, for which the IC50 amounted to 0.01 µM. This IC50 lies about 2.2-fold lower than the previous one. Compound `Cc1cc(F)ccc1COc1ccc(S(=O)(=O)CCC(=O)NO)cc1` showed an IC50 of 0.01 µM. That is a double-digit nanomolar value. Compound `O=C1CC=C2C=CC=C(S(=O)(=O)CCC(=O)NO)N2C1` came in with an IC50 of 0.0013 µM. The same measure, in the same setting: the same measure for `Cc1cc(F)ccc1COc1ccc(S(=O)(=O)NCC(=O)NO)cc1`: 0.01 µM. Regarding `CC#COc1ccc(C(=O)NCC(=O)NO)cc1`, the IC50 came to 0.121 µM. Take `CCCCOc1ccc(C(=O)NCC(=O)NO)cc1`: the IC50 turned out to be 0.92 µM. Still for that read-out and setting: for `CCCCOc1ccc(S(=O)(=O)CCC(=O)NO)cc1` the value was 0.92 µM; for `CC#COc1ccc(S(=O)(=O)NCC(=O)NO)cc1`, 0.121 µM; for `O=C1CC=C2C=CC=C(C(=O)NCC(=O)NO)N2C1`, 0.0013 µM.
